Experimental data from patent publication US20110212899A1, “Corneal Neuritogenesis Promoter Containing Pacap and Its Derivative” (priority 2004, published 2011).
Where no end group is shown, it is not given here.

Columns and labels:
Format in all cases: cell-based
[1] = tested on: excised rabbit lacrimal gland; assay: Promoting effect on protein secretion from an excised lacrimal gland (1) (Test Example 3)
Description: A lacrimal gland was excised from a rabbit and then treated with PACAP27 or peptide 17. Pharmacological effects of PACAP27 and peptide 17 on an increase in the protein secretion amount were examined.
(a) Purified water was added to sodium chloride (137.92 g), potassium chloride (7.01 g), calcium chloride dihydrate (3.53 g) and magnesium chloride hexahydrate (1.2 g) so that the total volume was 1000 mL (solution 1). Purified water was added to potassium dihydrogen phosphate (8.17 g) so that the total volume was 500 mL (solution 2). The solution 1 (50 mL) and the solution 2 (10 mL) were added to 900 mL of purified water, and in the resulting solution were dissolved glucose (2.07 g) and sodium hydrogen carbonate (2.1 g). The total volume of the resulting solution was adjusted to 1000 mL (pH about 7.4), which was used as a culture solution. A mixed gas of 95% oxygen and 5% carbon dioxide was allowed to pass through the culture solution.
(b) PACAP27 or peptide 17 was dissolved in the culture solution at a concentration of 10^−7 M, which was used as a test substance solution. Carbachol (Nacalai Tesque, Inc.), which has muscarinic agonist activity, was dissolved in the culture solution at a concentration of 10^−4 M, which was used as a control of the drugs (the carbachol-addition group). […]
(a) The section sample in a stationary state was incubated at 37° C. for 20 minutes in 0.5 mL of a fresh culture solution. […] The amount of protein in the culture solution was determined by using a protein staining reagent (DC Protein Assay Reagent, Bio Rad), and was converted into the protein secretion amount per 1 mg of the wet sample. […]
(b) The culture solution of the section sample after incubation obtained in (a) was replaced by 0.5 mL of the test substance solution. […] The protein amount in the collected solution was determined by using the protein staining reagent. In the same way, as a control group, the section sample was incubated in the culture solution which was replaced by a fresh culture solution and the protein amount in the culture solution was determined.

[2] = tested on: excised rabbit lacrimal gland; assay: Promoting effect on protein secretion from an excised lacrimal gland (2) (Test Example 5); conditions: carbachol 10^−4 M, incubated 60 minutes; p<0.05
Description: A lacrimal gland was excised from a rabbit and incubated in a solution containing PACAP27 or peptide 24, and changes in the amount of secreted protein were examined as lacrimal gland stimulating activity.
Japanese white rabbits with a body weight of 1.5 to 2.0 kg purchased from Fukusaki Rabbit warren were used. The animals were each put in separate cages placed in a room wherein a temperature of 23±3° C. and a humidity of 55±10% were kept and a light was on for 12 hours per day (lighting at 8:00 and lights-out at 20:00), and raised after arrival until the final day of the test. The animals were given 100 g of solid feed (Labo R Stock, Nosan Corporation) per day, and could freely have tap water.
PACAP27 and peptide 24 were used as test substances. Test substance solutions were prepared as follows. […]
The section sample in a stationary state was incubated in 0.5 mL of a fresh incubation solution at 37° C. for 20 minutes under a mixed gas atmosphere of 95% oxygen and 5% carbon dioxide. After completion of the incubation, the incubation solution was collected, and the protein amount in the solution was determined by using a protein staining reagent (DC Protein Assay Reagent, Bio Rad). […] The incubation solution was collected, and the protein amount in the incubation solution was determined. […]

[3] = tested on: cultured rabbit trigeminal nerve cells; assay: Promoting effect on neuritogenesis in cultured rabbit trigeminal nerve cells (1) (Test Example 1); conditions: final concentration 1 μM, cultured for 48 hours; control group 24.1%; p<0.001 vs non-addition group
Description: Japanese white rabbits (2 to 3 days old) purchased from Kitayama Labes Co., Ltd. were used.
Rabbit trigeminal nerve cells were isolated according to a method reported by Chan et al. (Kwan Y. Chan and Richard H. Haschke, Exp. Eye Res. 41: 687-699, 1985). The rabbit was subjected to cardiac perfusion with physiological saline under ether anesthesia. A trigeminal ganglion was excised from the rabbit, and then dispersed in a nerve dispersion liquid (Sumitomo Bakelite Co., Ltd.) to prepare trigeminal nerve cells. The trigeminal nerve cells were cultured in Neurobasal medium (Invitrogen Corp) supplemented with B27 Supplement (Invitrogen Corp; final concentration: 2% v/v) and L-glutamine (Invitrogen Corp; final concentration: 1 mM) under 5% CO2 and 95% air at a humidity of 100% and a temperature of 37° C. […]
For evaluating neuritogenesis in the cultured rabbit trigeminal nerve cells, the lengths of the longest neurite and the major axis of the cell body in the stained cell images scanned into the computer were measured using image analysis software (Image-Pro Plus ver. 4.0, Planetron, Inc.) The cells in 3 wells for each group were measured. […] The proportion (%) of the neurite forming cells in the total cell number was calculated (Otori, Y., Wei, J. Y., Barnstable, C. J., Invest. Opthalmol. Vis. Sic., (1998)39, 972-981).

Row | Compound | protein secretion rate of excised lacrimal gland ([1]; carbachol 10^−4 M (control of the drugs)) | protein secretion rate of excised lacrimal gland compared with control group [2] | proportion (%) of the neurite forming cells in the total cell number [3] [%] | duration of the action of the drug compared with the carbachol-addition group ([1]; 10^−7 M vs carbachol 10^−4 M) | protein secretion rate of excised lacrimal gland ([1]; 10^−7 M, at 20 minutes after initiation of the treatment and thereafter, p<0.05 vs control)
1 | C[N+](C)(C)CCOC(N)=O [carbachol, Carbachol, reference compound] | significant increase | significant increase | – | – | –
2 | His-Ser-Asp-Ala-Ile-Phe-Thr-Asp-Ser-Tyr-Ser-Arg-Tyr-Arg-Arg-Gln-Leu-Ala-Val-Arg-Arg-Tyr-Leu-Ala-Ala-Val-Leu-Gly-Arg-Arg-OH (HSDAIFTDSYSRYRRQLAVRRYLAAVLGRR-OH) [Peptide 17] | – | – | 54.1 | lasted longer | significantly increased
